Laboratory results reported in patent US5238936A, “Trisubstituted triazines” (Adir et Compagnie, priority 1991, dated 1993).

Legend:
line DC-3F/AD [1] = assay: Cytotoxicity (Microculture Tetrazolium Assay): reversal of resistance to actinomycin D, line DC-3F/AD; format: cell-based, Chinese hamster; conditions: 4 days
Source text: The pharmacological study of the compounds of the present invention consisted first of all in an evaluation in vitro carried out on resistant cells. The parameter measured is the cytotoxicity of the antitumour drug, quantified in the absence and in the presence of the reversing compound.
The cells are distributed on microplates and exposed to the cytotoxic compounds (actinomycin D for line DC-3F/AD and adriamycin for line KB-Al) at 9 concentrations (2 by 2 series dilutions). The compounds tested for their capacity to reverse MDR are added at the same time as the cytotoxic agent.
The cells are then incubated for 4 days. […] The results are expressed as a reversion factor (RF): PG,29 [formula]

line DC-3F/AD [2] = assay: Flow cytometry: intracellular accumulation of adriamycin by cells of the line DC-3F/AD; format: cell-based, Chinese hamster; conditions: ADR 50 μM, 5 hours
Source text: Also measured was the effect of the compounds on the intracellular concentration of the cytotoxic agent. In effect, the known compounds for reversing MDR act by increasing the intracellular concentration of cytotoxic agent. This effect is the consequence of inhibiting the action of gP 170 which is responsible for the efflux of the drug.
By measuring that fluorescence, it is thus possible to obtain a relative measurement of the intracellular concentration of ADR.
The cells 500×10^3 per ml were exposed simultaneously to ADR at a fixed concentration (50 μM) and to the tested compounds at various concentrations. After 5 hours' incubation, the intracellular accumulation of ADR was evaluated by FCM. […] The analysis of each of the samples was carried out on a total of 10,000 cells at a rate of 1,000 cells per second.
The results were presented in the form of linear histograms of the intracellular ADR fluorescence.
Expression of the results: for each of the histograms the mean fluorescence per channel (MEAN) was determined by the information system of the apparatus. For all experiments:
a negative control (cells without ADR) fixed the autofluorescence threshold.
a positive control (cells with ADR) determined the MEAN value=MN1.
the "test" tubes (cells with ADR and with compound) were used to determine, for each of the compounds and at each of the concentrations, the MEAN values=MN2.
The results are expressed in the form of variations from the mean fluorescence obtained for each of the "test" tubes (MN2) in relation to the mean fluorescence obtained with the positive control (MNl): VAR-MEAN=MN2-MN1. The parameter expressed is thus the increase in ADR fluorescence in the presence of the tested compounds.

resistant line P/388/VCR = assay: Antitumour activity in vivo: increase in antitumour activity of vincristine on murine leukaemia P 388/VCR; design: species or system murine; female B6D2Fl mice; conditions: with vincristine […] i.p., no compound: 146 ± 2
Source text: This study was completed by an in vivo study, using a murine leukaemia resistant to vincristine (P/388/VCR) and using the compounds in association with vincristine.
The sensitive parent line P 388 (murine leukaemia) and the sub-line resistant to vincristine, P 388/VCR, were supplied by NCI (Frederick, USA). The tumour cells (10^6 cells) were inoculated on day 0 into the intraperitoneal cavity of female B6D2Fl mice (Iffa Credo, France) weighing from 18 to 20 g (groups of 8 to 10 animals).
Every day for 4 days, starting from day 1, the animals received: […]
30 to 60 minutes later, an administration by the i.p. route of 0.25 mg/kg of vincristine (used as a reference antitumour agent).
The tumour activity is expressed as follows: [formula]
The values are mean values obtained in independent experiments (± sem when n is greater than or equal to 3).

Plasmodium falciparum = conditions: resistance to chloroquine; cited from earlier work
[3] = 50 mg/kg i.p. daily for 4 days, ± sem
[4] = 100 mg/kg i.p. daily for 4 days, ± sem

Structure (SMILES) | Reversion factors (cytotoxicity) with the line DC-3F/AD (line DC-3F/AD [1]; 0.5 μM compound) | Reversion factors (cytotoxicity) with the line DC-3F/AD (line DC-3F/AD [1]; 1 μM compound) | Reversion factors (cytotoxicity) with the line DC-3F/AD (line DC-3F/AD [1]; 5 μM compound) | VAR-MEAN (increase in ADR fluorescence), line DC-3F/AD (line DC-3F/AD [2]; 1.0 μM compound) | VAR-MEAN (increase in ADR fluorescence), line DC-3F/AD (line DC-3F/AD [2]; 5.0 μM compound) | VAR-MEAN (increase in ADR fluorescence), line DC-3F/AD (line DC-3F/AD [2]; 10 μM compound) | VAR-MEAN (increase in ADR fluorescence), line DC-3F/AD (line DC-3F/AD [2]; […] compound) | T/C % (resistant line P/388/VCR; [3]) | T/C % (resistant line P/388/VCR; [4]) | T/C % (resistant line P/388/VCR; 75 mg/kg i.p. daily for 4 days) | sensitivity of a chloroquine-resistant line (Plasmodium falciparum)
C=CCNc1nc(NCC)nc(N2CCC(NCC3c4ccccc4COc4ccccc43)CC2)n1 (racemic) [Example 29, 2-allylamino-4-ethylamino-6-{4-[((R,S)-6,11-dihydrodibenzo[b,e]oxepin-11-yl)methylamino]piperidin-1-yl}-1,3,5-triazine] | 1.7 | 33.8 | 1327.5 | 6.4 | 18.0 | 21.8 | 13.3 | 171 ± 6% | 185 ± 7% |  | 
C=CCNc1nc(NCC=C)nc(N2CCC(NCC3c4ccccc4CCc4cc(OC)ccc43)CC2)n1 (racemic) [Example 31, 2,4-diallylamino-6-{4-[((R,S)-10,11-dihydro-5H-2-methoxydibenzo[a,d]cyclohepten-5-yl)methylamino]piperidin-1-yl)-1,3,5-triazine] | 3.1 | 85.9 | 1913.4 | 9.4 | 30.8 |  | 26.6 | 159% | 177% |  | 
C=CCNc1nc(NCC=C)nc(N2CCC(NCC3c4ccccc4CCc4ccccc43)CC2)n1 [Example 3, 2,4-Diallylamino-6-{4-[(10,11-dihydro-5H-dibenzo[a,d]cyclohepten-5-yl)methylamino]piperidin-1-yl}-1,3,5-triazine] | 43 | 236 | 3187 | 20.2 | 28.3 | 29.6 | 25.8 | 208 ± 23% | 193 ± 3% |  | 
C=CCNc1nc(NCCC)nc(N2CCC(NCC3c4ccccc4CCc4ccccc43)CC2)n1 [Example 5, 2-allylamino-4-propylamino-6-{4-[(10,11-dihydro-5H-dibenzo[a,d]cyclohepten-5-yl)methylamino]piperidin-1-yl}-1,3,5-triazine] | 3.8 | 81 | 2753 | 17.9 | 27.3 | 24.9 | 23.5 | 184% | 195% |  | 
C=CCNc1nc(NCC=C)nc(N2CCC(NCC3c4ccccc4C=Cc4ccccc43)CC2)n1 [Example 11, 2,4-diallylamino-6-{4-[(5H-dibenzo[a,d]cyclohepten-5-yl)methylamino]piperidin-1-yl}-1,3,5-triazine] | 2 | 26 | 1408 | 12.7 | 24.5 | 25.8 | 20.2 | 156% | 168 ± 15% |  | 
C=CCNc1nc(NCC=C)nc(N2CCC(NCC3c4ccccc4CCCc4ccccc43)CC2)n1 [Example 20, 2,4-diallylamino-6-{4-[(5,6,7,12-tetrahydrodibenzo[a,d]cycloocten-12-yl)methylamino]piperidin-1-yl}-1,3,5-triazine] | 3.4 | 52 | 2951 | 8.2 | 22.3 | 21.6 | 19.7 | 161% | 174% |  | 
C=CCNc1nc(NCC)nc(N2CCC(NCC3c4ccccc4CCc4ccccc43)CC2)n1 [Example 22, 2-allylamino-4-ethylamino-6-{4-[(10,11-dihydro-5H-dibenzo[a,d]cyclohepten-5-yl)methylamino]piperidin-1-yl}-1,3,5-triazine] | 32 | 177 | 2499 | 15.1 | 23.1 | 24.9 | 21.9 | 159% | 165% |  | 
COc1ccc(CCN(C)CCCC(C#N)(c2ccc(OC)c(OC)c2)C(C)C)cc1OC (stereo not drawn) [verapamil, reference compound] |  |  |  | 2.1 | 5.6 | 8.9 | 4.0 | 164% |  | 177% | restores the sensitivity of a resistant line
